Earlier results in patent US20060105962A1, “TONIC TO MAINTAIN INTESTINAL FLORA” (priority 2004, published 2006).

Tested on: rats
Conditions: exposure over a thirteen week period, up to 100% safety

## O=Cc1ccco1 [furfural compounds, furfural]
  exposure to furfural compounds demonstrated as up to 100% safe: 53.0 mg/kg body weight
